Laboratory results reported in patent US20050176649A1, “Iap binding peptides and assays for identifying compounds that bind iap” (priority 2001, published 2005).
Residues, ends and D or L forms follow the SMILES beside them.

What was measured:
[1] = biological target: T1, BIR3 domain of XIAP (recombinant XIAP-BIR3, residues 238-358) (Homo sapiens, UniProt P98170); experiment: Fluorescence-based competition assay of tetrapeptide libraries (Example 1); format: binding, mammalian
T1 construct: Recombinant XIAP-BIR3 (residues 238-358); GST (N, cleaved yes); made in house; host or cells: E. coli
From the text: Expression and Purification of BIR3. […] The soluble fraction of the GST-BIR3 in the E. coli lysate was purified over a glutathione sepharose column, and further purified by anion exchange chromatography (Mono-Q, Amersham Biosciences). The fusion protein was cleaved by thrombin, and the GST portion was removed by the glutathione sepharose column. The BIR3 protein was further purified over a gel filtration column (Superdex 30, Amersham Biosciences).
Fluorescence Experiments. Luminescence spectra were recorded using a Photon Technologies, Inc. fluorometer with a Xe arc lamp and a PMT detector. […] The buffer used in all of the fluorescence experiments was 50 mM potassium phosphate, 100 mM NaCl, 2 mM 1,4-dithio-DL-threitol (DTT), pH 7.
Assay of Tetrapeptide Libraries. The samples were prepared in a 96 well plate lined with glass tubes, to prevent adsorption of the dye to plastic. The plate was stored on ice in the dark between measurements. […] 390 μL of this stock solution were added to 50 wells of the 96 well plate. 50 μL of the test tetrapeptide solutions were added and mixed immediately prior to taking the emission spectra. The final solutions were 5 μM in both badan and BIR3, and approximately 20-30 μM in the tetrapeptide solutions. […] 50 μL of water was added to these wells, again as controls, to determine the intensity of the unbound dye.
The binding of various tetrapeptide mimics to the BIR3 domain of XIAP was determined using a fluorescence-based competition assay. The assay is based on an environment-sensitive fluorogenic dye molecule, badan. Badan is a dye whose sensitivity to environmental changes has previously been used to probe protein binding interactions. […] As the dye is displaced from the binding pocket by the test molecule, the emission shifts back towards the aquated spectrum.

[2] = biological target: T2, BIR3 domain of XIAP (Homo sapiens, UniProt P98170); experiment: Fluorescence displacement assay: AVPC-badan displaced from BIR3 by test tetrapeptide (typical assay, Tables 1 and 2); format: binding, mammalian; conditions: for K: binding (equilibrium) constant for displacement of AVP-dye, position-4 library, 5 μM dye and protein, larger = greater affinity; for Intensity (470 nm): emission intensity of AVPC-badan with BIR3 and test tetrapeptide, excitation 387 nm, lower = more dye displaced; for Fraction free: fraction of AVPC-badan free (displaced from BIR3), from intensity at 470 nm
T2 construct: Recombinant XIAP-BIR3 (residues 238-358); GST (N, cleaved yes); made in house; host or cells: E. coli
From the text: The ability to quickly assay small molecules for their effectiveness in disrupting protein-protein interactions is critical to the development of viable drug candidates. One aspect of the present invention comprises an assay to test the binding affinity of a library of tetrapeptide molecules for the BIR3 domain of an inhibitor of apoptosis protein (LAP), particularly the mammalian XIAP. The assay is based on a detectable label, preferably a fluorogenic dye molecule. In preferred embodiments, the fluorophore is attached to a tripeptide, AVP, whose sequence matches the N-terminal three residues of Smac. The general structure of this molecule, therefore, is AVP[X], wherein X is the fluorophore. The molecule is referred to herein as an “AVP-dye”. The AVP-dye packs into the groove of the BIR3, causing a large shift in emission maximum and intensity when the environment of the dye changes from water to the hydrophobic pocket of the protein. If a molecule (e.g. the native Smac protein or a tetrapeptide mimic) displaces the dye, then emission will shift back to the spectrum observed in water. Since the emission intensity is related to the binding of the tetrapeptide, the intensity can be used to estimate the equilibrium constant, K, for displacement of the AVP-dye by the tetrapeptide. The larger the equilibrium constant, the greater affinity the tetrapeptide has for the BIR3.
The aforementioned AVP-dye is used in an assay of test compounds that may, like the Smac tetrapeptide AVPI, bind to the BIR3 domain of XIAP, thereby relieving XIAP-mediated suppression of apoptosis. This is a high-throughput, cell-free assay, that is assembled as follows. A protein comprising the BIR3 domain of an IAP is placed in an assay medium comprising a suitable buffer, as described above. Preferably, this is a recombinant protein comprising the BIR3 domain, but a full IAP protein also may be used. An aliquot of the AVP-dye is added to the reaction mixture, in the presence of the test compound. Controls comprise the BIR3 and the dye in the absence of the test compound and, optionally, BIR3 and the dye in the presence of the naturally occurring tetrapeptide, AVPI. […] Alternatively, a emission spectrum is measured at the selected excitation wavelength. In one type of measurement, the test compound is added and an emission spectrum is measured by scanning from, e.g., 460-480 nm. In another type of measurement, the emission intensity at a particular wavelength, e.g., 470 nm, is measured. […] Thus, the binding affinity of the test compound may be calculated as a function of its ability to displace the dye from the BIR3 domain, according to the following calculation: [formula]
Stock solution of badan, BIR3, and buffer were mixed: 2.5 ml of badan, 1.75 ml BIR3, and 15.25 ml of buffer were mixed in a glass vial which had been chilled to 4° C. Added 390 μL of the stock solution to 50 wells in the pre-chilled 96 well plate (wells A1-E2).
Stock solution of badan and buffer were mixed: 150 μL badan and 1020 μL of buffer were mixed in a small glass vial (also chilled) and added to 3 wells on the plate in 390 μL aliquots (F1-F3).
The 96 well plate was stored over ice in an insulated bucket while the emission spectra of the samples were taken. Fifty μL of the appropriate test solution (or water, for the control experiments) was added with a micropipet, the solution mixed with a Pasteur pipet before adding the sample to the fluorescence cuvette. While one sample was being scanned, the cuvette from the previous scan was washed with EtOH and then next sample was prepared.

[3] = biological target: Recombinant XIAP-BIR3 (residues 238-358) (UniProt P98170); experiment: fluorescence competition, displacement of AVPC-badan from BIR3
[4] = biological target: T3, Recombinant XIAP-BIR3 (residues 238-358) (UniProt P98170 238-358); experiment: as above
T3 construct: also called BIR3 domain of XIAP; BIR3 protein
T3 sequence (P98170 238-358 limits assumed): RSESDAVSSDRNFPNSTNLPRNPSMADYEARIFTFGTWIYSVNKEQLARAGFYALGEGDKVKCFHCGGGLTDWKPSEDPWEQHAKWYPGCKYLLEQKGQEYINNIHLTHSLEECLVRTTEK
Method: The samples were prepared in a 96 well plate lined with glass tubes, to prevent adsorption of the dye to plastic. The plate was stored on ice in the dark between measurements. A small volume cuvette, with a path length of 2 mm, was used to collect the emission spectra. […] 390 μL of this stock solution were added to 50 wells of the 96 well plate. 50 μL of the test tetrapeptide solutions were added and mixed immediately prior to taking the emission spectra. […] 50 μL of water was added to these wells, again as controls, to determine the intensity of the unbound dye.
The binding of various tetrapeptide mimics to the BIR3 domain of XIAP was determined using a fluorescence-based competition assay. […] As the dye is displaced from the binding pocket by the test molecule, the emission shifts back towards the aquated spectrum.

T1 sequence (P98170 238-358): as the sequence (P98170 238-358 limits assumed) above
T2 sequence (P98170 238-358): as the sequence (P98170 238-358 limits assumed) above
Sequence of Recombinant XIAP-BIR3 (residues 238-358) (UniProt P98170) (P98170 238-358 limits assumed): as above

| Kd [1] [nM] | K [2] | Kd [4] [nM] | Molecule | other results |
| --- | --- | --- | --- | --- |
| 7300 | 0.1799 |  | CC(C)[C@H](NC(=O)[C@H](C)N)C(=O)N1CCC[C@H]1C(=O)N[C@@H](CC(=O)O)C(N)=O [AVPD] (H-AVPD-NH2; N-terminus and C-terminus assumed) |  |
| 4700 | 0.08948 |  | CC(C)[C@H](NC(=O)[C@H](C)N)C(=O)N1CCC[C@H]1C(=O)NCC(N)=O [AVPG] (H-AVPG-NH2; N-terminus and C-terminus assumed) |  |
| 14000 | 0.05518 |  | CC(C)[C@H](NC(=O)[C@H](C)N)C(=O)N1CCC[C@H]1C(=O)N[C@@H](C)C(N)=O [AVPA] (H-AVPA-NH2; N-terminus and C-terminus assumed) |  |
| 93000 | 0.03709 |  | CC(C)[C@H](NC(=O)[C@H](C)N)C(=O)N1CCC[C@H]1C(=O)N[C@@H](CCC(=O)O)C(N)=O [AVPE] (H-AVPE-NH2; N-terminus and C-terminus assumed) |  |
| 330 |  |  | CC[C@H](C)[C@H](NC(=O)[C@@H]1CCCN1C(=O)[C@H](Cc1c[nH]cn1)NC(=O)[C@H](C)N)C(N)=O [AHPI] (H-AHPI-NH2; N-terminus and C-terminus assumed) | Intensity (470 nm) [2]: 41450; Fraction free [2]: 0.8543 |
| 5700 | 0.01069 |  | CC(C)[C@H](NC(=O)[C@H](C)N)C(=O)N1CCC[C@H]1C(=O)N1CCC[C@H]1C(N)=O [AVPP] (H-AVPP-NH2; N-terminus and C-terminus assumed) |  |
| 2300 | 0.05288 |  | CSCC[C@H](NC(=O)[C@@H]1CCCN1C(=O)[C@@H](NC(=O)[C@H](C)N)C(C)C)C(N)=O [AVPM] (H-AVPM-NH2; N-terminus and C-terminus assumed) |  |
| 1400 | 0.1034 |  | CC(C)[C@H](NC(=O)[C@H](C)N)C(=O)N1CCC[C@H]1C(=O)N[C@@H](CS)C(N)=O [AVPC, Ala-Val-Pro-Cys-NH2] |  |
| 180 |  |  | CC[C@H](C)[C@H](NC(=O)[C@@H]1CCCN1C(=O)[C@H](CCCNC(=N)N)NC(=O)[C@H](C)N)C(N)=O [ARPI] | Intensity (470 nm) [2]: 29455; Fraction free [2]: 0.9125 |
| 7300 | 0.07521 |  | CC(C)[C@H](NC(=O)[C@H](C)N)C(=O)N1CCC[C@H]1C(=O)N[C@@H](Cc1c[nH]cn1)C(N)=O [AVPH] (H-AVPH-NH2; N-terminus and C-terminus assumed) |  |
| 490 | 0.3423 |  | CC(C)C[C@H](NC(=O)[C@@H]1CCCN1C(=O)[C@@H](NC(=O)[C@H](C)N)C(C)C)C(N)=O [AVPL] (H-AVPL-NH2; N-terminus and C-terminus assumed) |  |
| 1500 | 0.1011 |  | CC(C)[C@H](NC(=O)[C@@H]1CCCN1C(=O)[C@@H](NC(=O)[C@H](C)N)C(C)C)C(N)=O [AVPV] (H-AVPV-NH2; N-terminus and C-terminus assumed) |  |
|  |  |  | AbuVPI (peptide) | Fraction free [3]: 0.887; Intensity (470 nm) [3]: 34800 |
|  |  | 290 | ALPI (Synthetic tetrapeptide) |  |
|  |  | 590 | AYPI (Synthetic tetrapeptide) |  |
|  |  | 390 | AIPI (Synthetic tetrapeptide) |  |
|  |  | 650 | ACPI (Synthetic tetrapeptide) |  |
|  |  | 730 | AMPI (Synthetic tetrapeptide) |  |
|  |  | 790 | AFPI (Synthetic tetrapeptide) |  |
|  |  | 570 | AKPI (Synthetic tetrapeptide) |  |
|  |  | 940 | AQPI (Synthetic tetrapeptide) |  |
